Where two headings read alike, the source gives them in different places.
Key:
Btk = target: T1, Btk (Homo sapiens, UniProt Q06187); assay: Btk in vitro inhibitory activity (one of Method A TR-FRET, Method B electrophoretic mobility shift, Method C radiometric filter binding); type: biochemical
T1 construct: purified from insect cells as a full-length construct containing a N-terminal 6X-His tag; His6 (N); made in house; host or cells: insect cells (Method C)
Method: Example 62a: Btk In Vitro Inhibitory Activity (Method A)
Btk kinase activity is determined using a time-resolved fluorescence resonance energy transfer (TR-FRET) methodology. Measurements are performed in a reaction volume of 50 μL using 96-well assay plates. […] The reaction is quenched by the addition of 1.2 equivalents of EDTA (relative to divalent cation) in 25 μL of 1× Lance buffer (Perkin-Elmer). Streptavidin-APC (Perkin-Elmer) and Eu-labeled p-Tyr100 antibody (Perkin-Elmer) in 1× Lance buffer are added in a 25 μL volume to give final concentrations of 100 nM and 2.5 nM, respectively, and the mixture is allowed to incubate for one hour. The TR-FRET signal is measured on a multimode plate reader with an excitation wavelength (λEx) of 330 nm and detection wavelengths (λEm) of 615 and 665 nm. Activity is determined by the ratio of the fluorescence at 665 nm to that at 615 nm. For each compound, enzyme activity is measured at various concentrations of compound. Negative control reactions are performed in the absence of inhibitor in replicates of six, and two no-enzyme controls are used to determine baseline fluorescence levels. Inhibition constants, Ki(app), were obtained using the program BatchKi (Kuzmic et al. (2000), Anal. Biochem. 286:45-50). IC50s are obtained according to the equation:
IC50={Ki(app)/(1+[ATP]/Km^ATP)}+[E]total/2;
For all kinases, [ATP]=Km^ATP, [Btk]total=0.5 nM and [Lck]total=6 nM.
Example 62b: Btk In Vitro Inhibitory Activity (Method B)
Kinase activity is measured in vitro using electrophoretic mobility shift assay. The kinase reactions are assembled in a total volume of 25 μL in 384 well plates. The reactions comprise: BTK enzyme (1 nM, N-terminal His6-tagged, recombinant, full-length, human BTK purified from baculovirus Sf21 insect cell system, 293HEK, or other suitable source), inhibitor, ATP, fluorescently labeled peptide substrate (1 μM, FAM-GEEPLYWSFPAKKK-NH2) in a reaction buffer composed of 100 mM HEPES, pH7.5, 5 mM MgCl2 1 mM DTT, 0.1% bovine serum albumin, 0.01% Triton X-100, and 1% DMSO. The reaction is incubated and is quenched by the addition of termination buffer (100 mM HEPES, pH 7.5, 0.01% Triton X-100, 30 mM EDTA). The terminated reactions are analyzed using a 12 channel LabChip® 3000 microfluidic detection instrument (Caliper Life Sciences). The enzymatic phosphorylation of the peptide results in a change in net charge, enabling electrophoretic separation of product from substrate peptide. As substrate and product peptides are separated, two peaks of fluorescence are observed. Change in the relative fluorescence intensity of the substrate and product peaks is the parameter measured, reflecting enzyme activity. In the presence of an inhibitor, the ratio between product and substrate is altered: the signal of the product decreases, while the signal of the substrate increases.
Activity in each sample is determined as the product to sum ratio (PSR):P/(S+P), where P is the peak height of the product peptide and S is the peak height of the substrate peptide. For each compound, enzyme activity is measured at various concentrations (12 concentrations of compound spaced by 3× dilution intervals). Negative control samples (0%—inhibition in the absence of inhibitor) and positive control samples (100%—inhibition, in the presence of 20 mM EDTA) are assembled in replicates of four and are used to calculate %—inhibition values for each inhibitor at each concentration. Percent inhibition (Pinh) is determined using following equation:
Pinh=(PSR0%−PSRinh)/(PSR0%−PSR100%)*100, where PSRinh is the product sum ratio in the presence of inhibitor, PSR0% is the average product sum ration in the absence of inhibitor and PSR100% is the average product sum ratio in 100%—inhibition control samples.
The IC50 values of inhibitors are determined by 4 parameter sigmoidal dose-response model fitting of the inhibition curves (Pinh versus inhibitor concentration) using XLfit 4 software. […]

TEC = target: T2, TEC (Homo sapiens, UniProt P42680); assay: Inhibition of a panel of kinases (in vitro HotSpot kinase assay, 33P-ATP, 1 μM ATP); type: biochemical; conditions: for TEC/Btk: ratio of TEC IC50 to Btk IC50 (selectivity)
T2 sequence (P42680 1-631): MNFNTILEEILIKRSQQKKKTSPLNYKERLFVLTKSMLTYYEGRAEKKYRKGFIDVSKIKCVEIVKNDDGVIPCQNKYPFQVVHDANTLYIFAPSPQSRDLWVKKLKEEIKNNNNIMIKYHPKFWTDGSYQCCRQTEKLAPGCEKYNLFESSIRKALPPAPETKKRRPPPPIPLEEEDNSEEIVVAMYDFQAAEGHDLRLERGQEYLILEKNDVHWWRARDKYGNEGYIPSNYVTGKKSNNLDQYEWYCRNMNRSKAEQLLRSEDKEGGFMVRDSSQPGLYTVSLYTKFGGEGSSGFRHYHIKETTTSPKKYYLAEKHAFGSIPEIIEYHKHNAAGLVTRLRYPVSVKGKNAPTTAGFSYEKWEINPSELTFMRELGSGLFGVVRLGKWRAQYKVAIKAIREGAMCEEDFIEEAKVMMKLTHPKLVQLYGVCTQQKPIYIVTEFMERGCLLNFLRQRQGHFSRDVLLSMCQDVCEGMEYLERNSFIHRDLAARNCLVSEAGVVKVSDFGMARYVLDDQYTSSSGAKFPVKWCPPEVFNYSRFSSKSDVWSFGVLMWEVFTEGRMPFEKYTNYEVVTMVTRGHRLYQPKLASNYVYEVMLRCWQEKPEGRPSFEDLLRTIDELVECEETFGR
Method: Example 63: Inhibition of a Panel of Kinases The degree of inhibition of a panel of kinases is determined using the in vitro HotSpot kinase assay (purified enzymes, ^33P-ATP, an appropriate substrate and 1 μM ATP).

[1] = method is one of A, B or C, not stated which, read-out: IC50 values against Btk
[2] = wild-type Btk, read-out: Btk-WT IC50

T1 sequence (Q06187 whole entry): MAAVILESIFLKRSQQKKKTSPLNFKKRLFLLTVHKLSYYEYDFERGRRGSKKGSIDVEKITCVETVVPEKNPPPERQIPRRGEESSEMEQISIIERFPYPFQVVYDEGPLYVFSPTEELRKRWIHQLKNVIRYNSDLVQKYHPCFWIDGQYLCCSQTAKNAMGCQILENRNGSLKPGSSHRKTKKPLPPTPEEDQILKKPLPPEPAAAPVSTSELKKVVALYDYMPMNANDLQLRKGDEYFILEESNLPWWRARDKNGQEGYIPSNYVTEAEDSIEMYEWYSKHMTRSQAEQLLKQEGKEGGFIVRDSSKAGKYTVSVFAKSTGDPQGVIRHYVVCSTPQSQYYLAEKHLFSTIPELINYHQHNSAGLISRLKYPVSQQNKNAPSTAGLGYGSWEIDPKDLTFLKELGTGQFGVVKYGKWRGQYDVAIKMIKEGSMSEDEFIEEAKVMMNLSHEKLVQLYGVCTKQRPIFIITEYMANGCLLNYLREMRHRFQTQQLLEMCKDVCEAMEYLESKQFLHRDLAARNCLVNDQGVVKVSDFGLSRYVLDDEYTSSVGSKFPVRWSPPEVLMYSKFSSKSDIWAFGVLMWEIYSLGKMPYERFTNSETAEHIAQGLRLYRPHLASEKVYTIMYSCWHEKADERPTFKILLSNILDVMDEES

CC(C)(C)c1nc(C(=O)NCc2ccc(-c3ccnc4[nH]nc(NC5CCNC5)c34)cc2F)no1 (stereo in doubt) [Example 50]
IC50 (Btk; [1]): < 10 nM

CC(C)(C)c1ccc(C(=O)Nc2cccc(-c3ccnc4[nH]nc(N[C@H]5CC[C@H](O)CC5)c34)c2)cc1 [Compound 13, 4-tert-butyl-N-[3-(3-{[(1r,4r)-4-hydroxycyclohexyl]amino}-1H-pyrazolo[3,4-b]pyridin-4-yl)phenyl]benzamide]
TEC/Btk (TEC): 10

Cc1c(NC(=O)c2ccc(C(C)(C)C)cc2)cccc1-c1ccnc2[nH]nc(N[C@H]3CC[C@H](O)CC3)c12 [Compound 14, 4-(tert-butyl)-N-(3-(3-(((1r,4r)-4-hydroxycyclohexyl)amino)-1H-pyrazolo[3,4-b]pyridin-4-yl)-2-methylphenyl)benzamide]
TEC/Btk (TEC): 10

CC(C)(C)c1ccc(C(=O)Nc2ccc(-c3ccnc4[nH]nc(N[C@H]5CC[C@H](O)CC5)c34)cc2F)cc1 [Compound 15, 4-tert-butyl-N-[2-fluoro-4-(3-{[(1r,4r)-4-hydroxycyclohexyl]amino}-1H-pyrazolo[3,4-b]pyridin-4-yl)phenyl]benzamide]
TEC/Btk (TEC): 10

C=CC(=O)N1CC[C@@H](Nc2n[nH]c3nccc(-c4ccc(C5(NC(=O)c6noc(C(C)(C)C)n6)CC5)cc4)c23)C1 [Example 4, 5-tert-butyl-N-{1-[4-(3-{[(3R)-1-(prop-2-enoyl)pyrrolidin-3-yl]amino}-1H-pyrazolo[3,4-b]pyridin-4-yl)phenyl]cyclopropyl}-1,2,4-oxadiazole-3-carboxamide]
IC50 (Btk; [1]): < 10 nM

C=CC(=O)N1CC[C@@H](Nc2n[nH]c3nccc(-c4ccc(CNC(=O)c5ccc(C(C)(C)C)cc5)c(F)c4)c23)C1 [Example 6, 4-tert-butyl-N-{[2-fluoro-4-(3-{[(3R)-1-(prop-2-enoyl)pyrrolidin-3-yl]amino}-1H-pyrazolo[3,4-b]pyridin-4-yl)phenyl]methyl}benzamide]
IC50 (Btk; [1]): < 10 nM

CC#CC(=O)N1CC[C@@H](Nc2n[nH]c3nccc(-c4ccc(CNC(=O)c5ccc(C(C)(C)C)cc5)c(F)c4)c23)C1 [Example 7, N-{[4-(3-{[(3R)-1-(but-2-ynoyl)pyrrolidin-3-yl]amino}-1H-pyrazolo[3,4-b]pyridin-4-yl)-2-fluorophenyl]methyl}-4-tert-butylbenzamide]
IC50 (Btk; [1]): < 10 nM

C=CC(=O)N1CC[C@@H](Nc2n[nH]c3nccc(-c4cccc(NC(=O)c5ccc(C(C)(C)C)cc5)c4C)c23)C1 [Example 9, 4-tert-butyl-N-[2-methyl-3-(3-{[(3R)-1-(prop-2-enoyl)pyrrolidin-3-yl]amino}-1H-pyrazolo[3,4-b]pyridin-4-yl)phenyl]benzamide]
IC50 (Btk; [1]): < 10 nM

C=CC(=O)N1CC[C@@H](Nc2n[nH]c3nccc(-c4cccc(-n5ccc6cc(C7CC7)cc(F)c6c5=O)c4CO)c23)C1 [Example 18, 6-cyclopropyl-8-fluoro-2-[2-(hydroxymethyl)-3-(3-{[(3R)-1-(prop-2-enoyl)pyrrolidin-3-yl]amino}-1H-pyrazolo[3,4-b]pyridin-4-yl)phenyl]-1,2-dihydroisoquinolin-1-one]
IC50 (Btk; [1]): < 10 nM

C=CC(=O)N1CC[C@@H](Nc2n[nH]c3nccc(-c4ccc(CNC(=O)c5ccccc5)c(F)c4)c23)C1 [Example 33, N-{[2-fluoro-4-(3-{[(3R)-1-(prop-2-enoyl)pyrrolidin-3-yl]amino}-1H-pyrazolo[3,4-b]pyridin-4-yl)phenyl]methyl}benzamide]
IC50 (Btk; [1]): < 10 nM

C=CC(=O)N1CC[C@@H](Nc2n[nH]c3nccc(-c4ccc(CNC(=O)c5ccc(C)cc5)c(F)c4)c23)C1 [Example 34, N-{[2-fluoro-4-(3-{[(3R)-1-(prop-2-enoyl)pyrrolidin-3-yl]amino}-1H-pyrazolo[3,4-b]pyridin-4-yl)phenyl]methyl}-4-methylbenzamide]
IC50 (Btk; [1]): < 10 nM

C[C@@H](NC(=O)c1nc(C(C)(C)C)no1)c1ccc(-c2ccnc3[nH]nc(NC4CCCCC4)c23)cc1 [Example 202, 3-tert-butyl-N-[(1R)-1-{4-[3-(cyclohexylamino)-1H-pyrazolo[3,4-b]pyridin-4-yl]phenyl}ethyl]-1,2,4-oxadiazole-5-carboxamide]
IC50 (Btk; [2]): 31 nM

CC(C)(C)c1noc(C(=O)NCc2ccc(-c3ccnc4[nH]nc(N5CCCC5=O)c34)cc2F)n1 [Example 245, 3-tert-butyl-N-({2-fluoro-4-[3-(2-oxopyrrolidin-1-yl)-1H-pyrazolo[3,4-b]pyridin-4-yl]phenyl}methyl)-1,2,4-oxadiazole-5-carboxamide]
IC50 (Btk; [2]): 145 nM

C[C@H]1CC[C@@H](Nc2n[nH]c3nccc(-c4ccc(CNC(=O)c5noc(C(C)(C)C)n5)cc4CO)c23)CN1C(=O)N(C)C [Example 251, (2S,5R)-5-({4-[4-{[(5-tert-butyl-1,2,4-oxadiazole-3-carbonyl)amino]methyl}-2-(hydroxymethyl)phenyl]-1H-pyrazolo[3,4-b]pyridin-3-yl}amino)-N,N,2-trimethylpiperidine-1-carboxamide]
IC50 (Btk; [2]): 64.6 nM

CC(C)(C)c1nc(C(=O)NCc2ccc(-c3ccnc4[nH]nc(OC5CCNC5)c34)cc2F)no1 (centres unmarked) [Example 269, 5-tert-butyl-N-[(2-fluoro-4-{3-[(pyrrolidin-3-yl)oxy]-1H-pyrazolo[3,4-b]pyridin-4-yl}phenyl)methyl]-1,2,4-oxadiazole-3-carboxamide]
IC50 (Btk; [2]): 26.3 nM

C=CC(=O)N1CC[C@@H](Nc2n[nH]c3nccc(-c4ccnc(NC(=O)c5noc(C(C)(C)C)n5)c4C)c23)C1 [Example 288, 5-tert-butyl-N-[3-methyl-4-(3-{[(3R)-1-(prop-2-enoyl)pyrrolidin-3-yl]amino}-1H-pyrazolo[3,4-b]pyridin-4-yl)pyridin-2-yl]-1,2,4-oxadiazole-3-carboxamide]
IC50 (TEC; HotSpot kinase assay, 1 μM ATP): 9.68 µM

C[C@H](NC(=O)c1noc(C(C)(C)C)n1)c1ccc(-c2ccnc3[nH]nc(N[C@@H]4CCNC4)c23)cc1F [Example 290, 5-tert-butyl-N-{(1S)-1-[2-fluoro-4-(3-{[(3R)-pyrrolidin-3-yl]amino}-1H-pyrazolo[3,4-b]pyridin-4-yl)phenyl]ethyl}-1,2,4-oxadiazole-3-carboxamide]
IC50 (Btk; [2]): 81.4 nM
